In paper PMC6572996, “Silver(I) Complexes of the Pharmaceutical Agents Metronidazole and 4-Hydroxymethylpyridine: Comparison of Cytotoxic Profile for Potential Clinical Application” (Molecules, 2019):
Read-outs that look alike come from different tables or passages of the source.

Tests used:
FaO cells = test system: FaO cells; set-up: method as in doi:10.2478/v10213-012-0102-5; details: cited from earlier work
IEC-6 cells = test system: IEC-6 cells; set-up: method as in PMID 20946968; details: 84.8 µM, 24 h exposure; cited from earlier work
HepG2 cells = test system: HepG2 cells; set-up: method as in doi:10.2478/v10213-012-0102-5; details: cited from earlier work
[1] = Cytotoxicity over four assays in both cell lines; type: cell-based; details: mouse (Balb/c 3T3) and human (HepG2), Balb/c 3T3 clone A31 fibroblasts and HepG2 hepatoma cells, mostly greater than 50%, read-out: Viability of the cells at the highest concentrations used
Method: Data obtained from the measurement of the optical density in these assays were transformed to percentages in relation to the control group, considered to be 100% for the MTT, NRU, and TPC assays and 0% for the LDH assay (Figure 1).
The human hepatoma cell line (HepG2) was purchased from the American Type Culture Collection (ATCC HB-8065). These cells were cultured in Minimum Essential Medium Eagle (MEME) (ATCC). The murine fibroblast cell line (Balb/c 3T3 clone A31) (gift from Department of Swine Diseases of the National Veterinary Research Institute in Pulawy) was cultured in Dulbecco’s Modified Eagle’s Medium (DMEM) (ATCC). The media were supplemented with 10% BCS (Balb/c 3T3), 10% FBS (HepG2), 1% L-glutamine, and 1% antibiotic solution. The cells were maintained in 75 cm^2 cell culture flasks (Nunc, Roskilde, Denmark) in a humidified incubator, NuAire (Plymouth, MN, USA) at 37 °C, in an atmosphere of 5% CO2. The medium was refreshed every two or three days and the cells were trypsinized by 0.25% trypsin–0.02% EDTA after reaching 70–80% confluence. […]
The concentration ranges of compounds were chosen according to their solubility and their plasma level. […] Cytotoxicity was assessed after 72 h of exposure of the cells to the compounds. […]
The results of the tests were expressed as a mean ± SD. […] The IC50 values were calculated by GraphPad Prism 5 software (San Diego, CA, USA). […]

10T1/2 cell line = test system: 10T1/2 cell line; set-up: method as in PMID 26828469; details: same observation as in this study; cited from earlier work
MCF7 cells = test system: MCF7 cells; set-up: method as in PMID 22832309; details: 48 h incubation, cited from earlier work
human fibroblasts (FMM1) = test system: human fibroblasts (FMM1); set-up: method as in PMID 20857004; details: 50 µg/mL, 72 h treatment; cited from earlier work
[2] = test system: OVCAR-3 (ovarian) cell line; set-up: method as in PMID 18615197; details: 72 h; cited from earlier work
[3] = test system: murine fibroblasts (L929); set-up: method as in PMID 18364400; details: 24 h exposure; read-out: IC50, L929, NRU assay; cited from earlier work
[4] = test system: HeLa (cervical) cell line; set-up: method as in PMID 18615197; details: 72 h; cited from earlier work
A549 (lung) cells = details: 72 h exposure; cited from earlier work
NIH/3T3 cells = details: 24 h exposure; cited from earlier work
[5] = test system: murine fibroblasts (L929); set-up: method as in PMID 18364400; details: 24 h exposure; read-out: IC50, L929, MTT assay; cited from earlier work
HeLa cell lines = test system: HeLa cell lines; set-up: method as in PMID 19836347; details: cited from earlier work

SMILES | Cytotoxicity in FaO cells (FaO cells) | Inhibition of viability of IEC-6 cells (IEC-6 cells) [%] | Cytotoxicity in HepG2 cells (HepG2 cells) | viability at 72 h [1] [%] | Cytotoxicity in 10T1/2 cell line (10T1/2 cell line) | Inhibition of MCF7 cells (MCF7 cells; 250 µM) [%] | Cytotoxicity in MCF7 cells (MCF7 cells; concentration range 2.5 to 250 µM) | Decrease of viability of human fibroblasts (FMM1) (human fibroblasts (FMM1)) [%] | IC50 [2] [µM] | IC50 [3] [nM] | IC50 [4] [µM] | IC50 (A549 (lung) cells) [µM] | IC50 (NIH/3T3 cells) [µM] | IC50 [5] [µM] | IC50 (HeLa cell lines) [nM]
Cc1ncc([N+](=O)[O-])n1CCO [Metronidazole] | low cytotoxicity | 8 | low cytotoxicity | > 50 | poorly cytotoxic | 30 | not cytotoxic | 40 | – | – | – | – | – | – | –
O=[N+]([O-])[O-].[Ag+] [Silver nitrate] | – | – | – | – | – | – | – | – | 35 | 2550 | 50 | 13.5 | 12.3 | 3.57 | 2890
